Here are results for 14 molecules from ChEMBL document CHEMBL1147978, “Small molecule inhibitors of a glycoside hydrolase attenuate inducible AmpC-mediated beta-lactam resistance” (J Biol Chem, 2007).

One may read the Ki as the equilibrium dissociation constant of an inhibitor or competing ligand from its target. High values mean lower affinity, low ones higher affinity. The pIC50 is −log10 of the IC50, conventionally taken in molar units. A higher pIC50 goes with a small IC50. Usually MIC stands for the smallest concentration in the dilution series that meets the test's criterion for growth inhibition. Low values mean greater potency, high ones weaker potency.

pIC50: −log10 of the molar value. ≈ marks a conversion by molar mass, not a printed value.

Assay [1] concerns the target T1, Beta-hexosaminidase (Vibrio cholerae serotype O1 (strain ATCC 39315 / El Tor Inaba N16961)) (UniProt Q9KU37).
T1 sequence (whole entry): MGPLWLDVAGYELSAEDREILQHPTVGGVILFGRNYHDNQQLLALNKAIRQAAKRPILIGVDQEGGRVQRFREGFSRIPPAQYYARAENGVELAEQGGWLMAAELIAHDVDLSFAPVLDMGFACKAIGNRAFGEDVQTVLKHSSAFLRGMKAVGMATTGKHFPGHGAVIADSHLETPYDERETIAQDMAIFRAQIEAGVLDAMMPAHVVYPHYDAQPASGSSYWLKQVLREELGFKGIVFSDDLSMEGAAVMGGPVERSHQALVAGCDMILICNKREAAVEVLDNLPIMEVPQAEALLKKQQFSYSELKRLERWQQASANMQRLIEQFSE
Put plainly: Inhibition of Vibrio cholerae NagZ.

For a further assay, the species on record is Homo sapiens. Put plainly: Inhibition of human family 20 beta-hexosaminidase.
Assay [2] addresses Protein O-GlcNAcase (Homo sapiens) (UniProt O60502). Put plainly: Inhibition of human family 84 O-GLcNAcase.
A short description of assay [3]: Ratio of human 84 O-GLcNAcase to Vibrio cholerae NagZ.
A short description of assay [4]: Inhibition of bovine family 20 beta-hexosaminidase. On the set-up: species or system Bos taurus.
Assay [5] deals with Escherichia coli. Put plainly: Antimicrobial activity against wild type Escherichia coli transfected with pCF1 by serial dilution method.
Assay [6] relates to Escherichia coli. Description: Antimicrobial activity against ampD deficient Escherichia coli transfected with pCF1 in medium containing EtbuPUG by serial dilution method. The assay is classed as functional.
Assay [7] has as its system Escherichia coli. Put plainly: Antimicrobial activity against wild type Escherichia coli by serial dilution method. The assay is classed as functional.
In assay [8] the test system is Escherichia coli. Description: Antimicrobial activity against wild type Escherichia coli transfected with pCF1 in medium containing EtbuPUG by agar diffusion assay. The assay is classed as functional. In general terms: In agar diffusion tests the substance spreads into inoculated agar from a disc or well.
In assay [9] the test system is Escherichia coli. Put plainly: Antimicrobial activity against wild type EtbuPUG treated Escherichia coli transfected with pCF1 by serial dilution method. Type of assay: functional.
Assay [10] has as its system Escherichia coli. Put plainly: Antimicrobial activity against ampD deficient Escherichia coli in medium containing EtbuPUG by serial dilution method. The assay is classed as functional.
Assay [11] has as its system Escherichia coli. Put plainly: Antimicrobial activity against ampD deficient Escherichia coli transfected with pCF1 by agar diffusion assay. Type of assay: functional.
Assay [12] deals with Escherichia coli. Description: Antimicrobial activity against wild type Escherichia coli in medium containing EtbuPUG by serial dilution method. Type of assay: functional.
Assay [13] concerns Escherichia coli. Description: Antimicrobial activity against ampD deficient Escherichia coli transfected with pCF1 in medium containing EtbuPUG by agar diffusion assay. The assay is classed as functional.
Assay [14] concerns Escherichia coli. Description: Antimicrobial activity against ampD deficient Escherichia coli by serial dilution method. Type of assay: functional.
Assay [15] has as its system Escherichia coli. Put plainly: Antimicrobial activity against wild type Escherichia coli transfected with pCF1 by agar diffusion assay. The assay is classed as functional.
In assay [16] the test system is Escherichia coli. Put plainly: Antimicrobial activity against ampD deficient Escherichia coli transfected with pCF1 by serial dilution method. The assay is classed as functional.
Assay [17] in a line: Selectivity for Vibrio cholerae NagZ over human family 84 O-GLcNAcas.
Assay [18] is described as follows: Selectivity for Vibrio cholerae NagZ over human family 20 beta-hexosaminidase.

Sequence of Protein O-GlcNAcase (Homo sapiens) (O60502 whole entry, looked up): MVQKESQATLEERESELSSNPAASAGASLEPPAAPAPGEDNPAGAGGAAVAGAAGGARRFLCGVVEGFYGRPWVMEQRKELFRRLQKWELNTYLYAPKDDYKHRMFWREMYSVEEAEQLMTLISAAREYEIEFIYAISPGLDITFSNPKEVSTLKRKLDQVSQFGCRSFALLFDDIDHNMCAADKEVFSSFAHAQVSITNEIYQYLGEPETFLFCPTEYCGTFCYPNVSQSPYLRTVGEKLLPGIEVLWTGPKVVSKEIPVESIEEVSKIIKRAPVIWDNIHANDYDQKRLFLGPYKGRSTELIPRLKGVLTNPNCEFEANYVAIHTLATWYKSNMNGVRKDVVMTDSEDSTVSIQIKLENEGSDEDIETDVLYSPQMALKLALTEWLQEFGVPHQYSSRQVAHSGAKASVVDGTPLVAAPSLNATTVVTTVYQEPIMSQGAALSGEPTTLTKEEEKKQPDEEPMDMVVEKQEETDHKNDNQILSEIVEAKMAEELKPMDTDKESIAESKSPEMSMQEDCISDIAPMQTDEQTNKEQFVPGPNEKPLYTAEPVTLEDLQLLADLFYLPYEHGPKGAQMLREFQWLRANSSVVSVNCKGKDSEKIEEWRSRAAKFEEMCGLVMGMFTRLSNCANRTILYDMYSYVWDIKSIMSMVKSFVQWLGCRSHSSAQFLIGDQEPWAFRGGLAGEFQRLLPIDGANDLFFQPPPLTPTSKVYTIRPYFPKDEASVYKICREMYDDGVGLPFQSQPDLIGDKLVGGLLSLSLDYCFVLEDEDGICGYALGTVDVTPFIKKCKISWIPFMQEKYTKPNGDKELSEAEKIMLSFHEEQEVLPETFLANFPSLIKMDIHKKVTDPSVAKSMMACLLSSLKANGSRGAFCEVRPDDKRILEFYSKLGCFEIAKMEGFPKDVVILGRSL

In the case of `CCCC(=O)N[C@H]1/C(=N/OC(=O)Nc2ccccc2)O[C@H](CO)[C@@H](O)[C@@H]1O`, in assay [1], the Kinact was 0.26 µM. In addition, the results for the Ki (in the assay listed under Homo sapiens; in assay [2]) were 26 µM and 40 µM, respectively.
In assay [1], `CC(=O)N[C@H]1c2nc(CC(=O)O)cn2[C@H](CO)[C@@H](O)[C@@H]1O` showed a Kinact of 15 µM. The Selectivity ratio in assay [3] came out at 0.03. Besides, the Ki in [2] was 0.43 µM. In [4], the pIC50 was 8.28.
`CO[C@@]1(NC(=O)Cc2cccs2)C(=O)N2C(C(=O)O)=C(COC(N)=O)CS[C@@H]21` [CEFOXITIN]: the MIC in the assay with Escherichia coli [5] came out at 64 µg/mL (≈ 150 µM); in the assay on Escherichia coli [6], 256 µg/mL (≈ 599 µM); in the assay on Escherichia coli [7], 1 µg/mL (≈ 2.34 µM); against Escherichia coli [9], 32 µg/mL (≈ 74.9 µM); with Escherichia coli [10], 2 µg/mL (≈ 4.68 µM); against Escherichia coli [12], 1 µg/mL (≈ 2.34 µM). The MIC in the assay on Escherichia coli [14] stood at 2 µg/mL (≈ 4.68 µM); against Escherichia coli [16], 512 µg/mL (≈ 1200 µM). Further, the “inhibition zone (IZ)” value was 10.9 mm in the assay on Escherichia coli [8], 8.8 mm with Escherichia coli [11], 10.8 mm in the assay with Escherichia coli [13] and 9.3 mm with Escherichia coli [15].
The molecule `CC(C)C(=O)N[C@H]1/C(=N/OC(=O)Nc2ccccc2)O[C@H](CO)[C@@H](O)[C@@H]1O` displayed a Kinact in assay [1] of 0.51 µM. Further, the figures for the Ki (in the assay filed under Homo sapiens; in assay [2]) were 20 µM and 9 µM, respectively. The Selectivity ratio in [3] amounted to 18.
In assay [1], `CC(C)CC(=O)N[C@H]1/C(=N/OC(=O)Nc2ccccc2)O[C@H](CO)[C@@H](O)[C@@H]1O` returned a Kinact of 15 µM. In addition, the Ki in the assay filed under Homo sapiens is > 1200 µM; in [2], 190 µM. Besides, the Selectivity ratio in assay [3] turned out to be 13.
As for `CO/N=C(\C(=O)N[C@@H]1C(=O)N2C(C(=O)O)=C(COC(C)=O)CS[C@H]12)c1csc(N)n1` [CEFOTAXIME], the MIC was 64 µg/mL (≈ 141 µM) against Escherichia coli [5]; 64 µg/mL (≈ 141 µM) in the assay on Escherichia coli [6]; 1 µg/mL (≈ 2.2 µM) in the assay on Escherichia coli [7]; 16 µg/mL (≈ 35.1 µM) against Escherichia coli [9]; < 2 µg/mL in the assay on Escherichia coli [10]; 1 µg/mL (≈ 2.2 µM) in the assay on Escherichia coli [12]. Further, the MIC against Escherichia coli [14] was < 2 µg/mL; in the assay with Escherichia coli [16], 128 µg/mL (≈ 281 µM). Besides, the “inhibition zone (IZ)” value with Escherichia coli [8] came out at 12.9 mm; with Escherichia coli [11], 7.1 mm; in the assay on Escherichia coli [13] it was 9 mm; in the assay on Escherichia coli [15] it was 10.3 mm.
In the case of `CO/N=C(\C(=O)N[C@@H]1C(=O)N2C(C(=O)O)=C(CSc3nc(=O)c(O)nn3C)CS[C@H]12)c1csc(N)n1` [CEFTRIAXONE], the MIC against Escherichia coli [5] is 32 µg/mL (≈ 57.7 µM); in the assay on Escherichia coli [6] it was 32 µg/mL (≈ 57.7 µM); against Escherichia coli [7], < 1 µg/mL; against Escherichia coli [9], 16 µg/mL (≈ 28.9 µM); in the assay on Escherichia coli [10], < 2 µg/mL; against Escherichia coli [12] it was < 1 µg/mL. Further, the MIC in the assay with Escherichia coli [14] is < 2 µg/mL; in the assay on Escherichia coli [16] it was 128 µg/mL (≈ 231 µM).
`CCC(CC)C(=O)N[C@H]1/C(=N/OC(=O)Nc2ccccc2)O[C@H](CO)[C@@H](O)[C@@H]1O`: the values for the Selectivity ratio in [17], in assay [18] and in [3] were 100, 100 and 109, respectively. In assay [1], this molecule had a Kinact of 3.1 µM. Further, the Ki in the assay filed under Homo sapiens was > 3000 µM; in assay [2], 337 µM.
`CC(C)(O/N=C(\C(=O)N[C@@H]1C(=O)N2C(C(=O)[O-])=C(C[n+]3ccccc3)CS[C@H]12)c1csc(N)n1)C(=O)O` [CEFTAZIDIME]: the MIC in the assay on Escherichia coli [5] is 64 µg/mL (≈ 117 µM); in the assay on Escherichia coli [6], 64 µg/mL (≈ 117 µM); in the assay on Escherichia coli [7] it was 1 µg/mL (≈ 1.83 µM); against Escherichia coli [9], 32 µg/mL (≈ 58.5 µM); with Escherichia coli [10] it was < 2 µg/mL; against Escherichia coli [12], 1 µg/mL (≈ 1.83 µM). Further, the MIC against Escherichia coli [14] was < 2 µg/mL; against Escherichia coli [16], 256 µg/mL (≈ 468 µM).
In assay [1], `CCC(=O)N[C@H]1/C(=N/OC(=O)Nc2ccccc2)O[C@H](CO)[C@@H](O)[C@@H]1O` yielded a Kinact of 0.16 µM. The Ki (in the assay filed under Homo sapiens; in assay [2]) was 1.2 µM throughout. The Selectivity ratio in assay [3] amounted to 7.5.
In the case of `CC(=O)N[C@H]1/C(=N/OC(=O)Nc2ccccc2)O[C@H](CO)[C@@H](O)[C@@H]1O`, the Kinact in assay [1] was found to be 0.048 µM. This molecule also registered a Ki in the assay listed under Homo sapiens of 0.036 µM.
With `CC(=O)N[C@H]1/C(=N/O)O[C@H](CO)[C@@H](O)[C@@H]1O`, in assay [1], the Kinact is 0.22 µM. Besides, in assay [3], the Selectivity ratio stood at 29. In [2], this molecule registered a Ki of 6.4 µM.
`CCCCCC(=O)N[C@H]1/C(=N/OC(=O)Nc2ccccc2)O[C@H](CO)[C@@H](O)[C@@H]1O` returned a Kinact in assay [1] of 6.5 µM. For the same molecule, the Ki in the assay listed under Homo sapiens was > 900 µM; in assay [2], 220 µM. The Selectivity ratio in assay [3] was 33.
`CCCCC(=O)N[C@H]1/C(=N/OC(=O)Nc2ccccc2)O[C@H](CO)[C@@H](O)[C@@H]1O` showed a Kinact in [1] of 0.33 µM. The Ki in the assay listed under Homo sapiens amounted to 220 µM; in [2], 40 µM. The Selectivity ratio in [3] came to 121.
